Source: ChEMBL document CHEMBL3046275, “EBHU18, a novel derivative of fatty acid bile acid conjugates, prevents cholesterol gallstone formation in experimental mice” (Med Chem Res, 2012)
The source made the active and inactive calls. No cut-off for these calls is given here.

Legend:
Mus musculus [1] = experiment: Hepatoprotective activity in lithogenic diet-fed Mus musculus C57BL/6 (mouse) assessed as decrease in serum ALT level at 0.5 mg/kg/day, po followed by lithogenic diet feeding for 8 weeks (reference value: 42.6 +/- 7.63 IU/L); format: functional
Mus musculus [2] = experiment: Reduction of lithogenic diet-induced fatty liver formation in Mus musculus C57BL/6 (mouse) at 0.5 to 3 mg/kg/day, po after 8 weeks by hematoxylin-eosin staining relative to untreated control; format: functional, organism-based
Mus musculus [3] = experiment: Toxicity in lithogenic diet-fed Mus musculus C57BL/6 (mouse) assessed as change in body weight at 0.5 mg/kg/day, po followed by lithogenic diet feeding for 8 weeks (reference value: 30.82 +/- 2.88 g); format: organism-based; design: route oral; details: in vivo, 1344 h
Mus musculus [4] = experiment: Protection against lithogenic diet-induced gallstone formation in Mus musculus C57BL/6 (mouse) at 3 mg/kg/day, po after 8 weeks by infrared photoacoustic spectroscopic analysis relative to untreated control; format: functional, organism-based
Mus musculus [5] = experiment: Hepatoprotective activity in lithogenic diet-fed Mus musculus C57BL/6 (mouse) assessed as decrease in serum triglyceride level at 0.5 to 3 mg/kg/day, po after 8 weeks relative to untreated control; format: functional, organism-based
Mus musculus [6] = experiment: Hepatoprotective activity in lithogenic diet-fed Mus musculus C57BL/6 (mouse) assessed as decrease in serum triglyceride level at 3 mg/kg/day, po followed by lithogenic diet feeding for 8 weeks (reference value: 1.01+/- 0.15 mmol/l); format: functional
Mus musculus [7] = experiment: Hepatoprotective activity in lithogenic diet-fed Mus musculus C57BL/6 (mouse) assessed as decrease in serum total cholesterol level at 0.5 mg/kg/day, po followed by lithogenic diet feeding for 8 weeks (reference value: 2.24 +/- 0.27 mmol/l); format: functional
Mus musculus [8] = experiment: Reduction of lithogenic diet-induced fatty liver formation in Mus musculus C57BL/6 (mouse) at 0.5 to 3 mg/kg/day, po followed by lithogenic diet feeding for 8 weeks by hematoxylin-eosin staining relative to untreated control; format: functional, organism-based
Mus musculus [9] = experiment: Reduction of lithogenic diet-induced gallstone formation in Mus musculus C57BL/6 (mouse) at 3 mg/kg/day, po followed by lithogenic diet feeding for 8 weeks by infrared photoacoustic spectroscopic analysis (reference value: 1.53 +/- 0.63 g); format: functional
Mus musculus [10] = experiment: Hepatoprotective activity in lithogenic diet-fed Mus musculus C57BL/6 (mouse) assessed as decrease in serum total cholesterol level at 0.5 to 3 mg/kg/day, po after 8 weeks relative to untreated control; format: functional, organism-based
Mus musculus [11] = experiment: Reduction of lithogenic diet-induced gallstone formation in Mus musculus C57BL/6 (mouse) at 0.5 mg/kg/day, po followed by lithogenic diet feeding for 8 weeks by infrared photoacoustic spectroscopic analysis (reference value: 1.53 +/- 0.63 g); format: functional
Mus musculus [12] = experiment: Hepatoprotective activity in lithogenic diet-fed Mus musculus C57BL/6 (mouse) assessed as decrease in serum triglyceride level at 0.5 mg/kg/day, po followed by lithogenic diet feeding for 8 weeks (reference value: 1.01+/- 0.15 mmol/l); format: functional
Mus musculus [13] = experiment: Protection against lithogenic diet-induced gallstone formation in Mus musculus C57BL/6 (mouse) at 0.5 mg/kg/day, po after 8 weeks by infrared photoacoustic spectroscopic analysis relative to untreated control; format: functional, organism-based
Mus musculus [14] = experiment: Toxicity in lithogenic diet-fed Mus musculus C57BL/6 (mouse) assessed as change in body weight at 0.5 to 3 mg/kg/day, po after 8 weeks; format: organism-based; design: route oral; details: in vivo, 1344 h
Mus musculus [15] = experiment: Hepatoprotective activity in lithogenic diet-fed Mus musculus C57BL/6 (mouse) assessed as decrease in serum total cholesterol level at 3 mg/kg/day, po followed by lithogenic diet feeding for 8 weeks (reference value: 2.24 +/- 0.27 mmol/l); format: functional
Mus musculus [16] = experiment: Toxicity in lithogenic diet-fed Mus musculus C57BL/6 (mouse) assessed as change in body weight at 3 mg/kg/day, po followed by lithogenic diet feeding for 8 weeks (reference value: 30.82 +/- 2.88 g); format: organism-based; design: route oral; details: in vivo, 1344 h
Mus musculus [17] = experiment: Hepatoprotective activity in lithogenic diet-fed Mus musculus C57BL/6 (mouse) assessed as decrease in serum ALT level at 3 mg/kg/day, po followed by lithogenic diet feeding for 8 weeks (reference value: 42.6 +/- 7.63 IU/L); format: functional
Mus musculus [18] = experiment: Hepatoprotective activity in lithogenic diet-fed Mus musculus C57BL/6 (mouse) assessed as decrease in serum ALT level at 0.5 to 3 mg/kg/day, po after 8 weeks relative to untreated control; format: functional, organism-based
Mus musculus [19] = experiment: Hepatoprotective activity in lithogenic diet-fed Mus musculus C57BL/6 (mouse) assessed as decrease in serum ALT level at 10 mg/kg/day, po after 8 weeks relative to untreated control; format: functional, organism-based
Mus musculus [20] = experiment: Hepatoprotective activity in lithogenic diet-fed Mus musculus C57BL/6 (mouse) assessed as decrease in serum ALT level at 10 mg/kg/day, po followed by lithogenic diet feeding for 8 weeks (reference value: 42.6 +/- 7.63 IU/L); format: functional
Mus musculus [21] = experiment: Toxicity in lithogenic diet-fed Mus musculus C57BL/6 (mouse) assessed as change in body weight at 10 mg/kg/day, po followed by lithogenic diet feeding for 8 weeks (reference value: 30.82 +/- 2.88 g); format: organism-based; design: route oral; details: in vivo, 1344 h
Mus musculus [22] = experiment: Hepatoprotective activity in lithogenic diet-fed Mus musculus C57BL/6 (mouse) assessed as decrease in serum triglyceride level at 10 mg/kg/day, po followed by lithogenic diet feeding for 8 weeks (reference value: 1.01+/- 0.15 mmol/l); format: functional
Mus musculus [23] = experiment: Protection against lithogenic diet-induced gallstone formation in Mus musculus C57BL/6 (mouse) at 10 mg/kg/day, po after 8 weeks by infrared photoacoustic spectroscopic analysis relative to untreated control; format: functional, organism-based
Mus musculus [24] = experiment: Reduction of lithogenic diet-induced gallstone formation in Mus musculus C57BL/6 (mouse) at 10 mg/kg/day, po followed by lithogenic diet feeding for 8 weeks by infrared photoacoustic spectroscopic analysis (reference value: 1.53 +/- 0.63 g); format: functional
Mus musculus [25] = experiment: Hepatoprotective activity in lithogenic diet-fed Mus musculus C57BL/6 (mouse) assessed as decrease in serum total cholesterol level at 10 mg/kg/day, po followed by lithogenic diet feeding for 8 weeks (reference value: 2.24 +/- 0.27 mmol/l); format: functional
Mus musculus [26] = experiment: Hepatoprotective activity in lithogenic diet-fed Mus musculus C57BL/6 (mouse) assessed as decrease in serum total cholesterol level at 10 mg/kg/day, po after 8 weeks relative to untreated control; format: functional, organism-based
Mus musculus [27] = experiment: Toxicity in lithogenic diet-fed Mus musculus C57BL/6 (mouse) assessed as change in body weight at 10 mg/kg/day, po after 8 weeks; format: organism-based; design: route oral; details: in vivo, 1344 h
Mus musculus [28] = experiment: Hepatoprotective activity in lithogenic diet-fed Mus musculus C57BL/6 (mouse) assessed as decrease in serum triglyceride level at 10 mg/kg/day, po after 8 weeks relative to untreated control; format: functional, organism-based
Mus musculus [29] = experiment: Reduction of lithogenic diet-induced fatty liver formation in Mus musculus C57BL/6 (mouse) at 10 mg/kg/day, po followed by lithogenic diet feeding for 8 weeks by hematoxylin-eosin staining relative to untreated control; format: functional, organism-based

Q: What does the source list for `CCCCCCCCCCCCCCCCCCCC(=O)NCCCCC(NC(=O)CC[C@@H](C)[C@H]1CC[C@H]2[C@@H]3C(O)C[C@@H]4C[C@H](O)CC[C@]4(C)[C@H]3C[C@H](O)[C@]12C)C(=O)O` (some centres undefined)?
A: Activity (Mus musculus [1]): 34.8 IU/L; Activity (Mus musculus [2]): Active; Activity (Mus musculus [3]): 31.89 g; Activity (Mus musculus [4]): Active; Activity (Mus musculus [5]): Active; Activity (Mus musculus [6]): 0.74 mmol/L; Activity (Mus musculus [7]): 2.09 mmol/L; Activity (Mus musculus [8]): Active; Activity (Mus musculus [9]): 0.96 g; Activity (Mus musculus [10]): Active; Activity (Mus musculus [11]): 1.02 g; Activity (Mus musculus [12]): 0.76 mmol/L; Activity (Mus musculus [13]): inactive; Activity (Mus musculus [14]): Non-toxic; Activity (Mus musculus [15]): 2.04 mmol/L; Activity (Mus musculus [16]): 31.74 g; Activity (Mus musculus [17]): 36.5 IU/L; Activity (Mus musculus [18]): Active

Q: For `C[C@H](CCC(=O)O)[C@H]1CC[C@H]2[C@@H]3[C@@H](O)C[C@@H]4C[C@H](O)CC[C@]4(C)[C@H]3CC[C@]12C` [URSODIOL], which Activity (Mus musculus [19]) is on record?
A: Active

Q: What about the Activity (Mus musculus [20]) of the same molecule?
A: 38 IU/L

Q: And the Activity (Mus musculus [21])?
A: 31.76 g

Q: What about the Activity (Mus musculus [22]) of the same molecule?
A: 0.75 mmol/L

Q: And the Activity (Mus musculus [23])?
A: inactive

Q: What about the Activity (Mus musculus [24]) of the same molecule?
A: 1.41 g

Q: And the Activity (Mus musculus [25])?
A: 2.16 mmol/L

Q: And the Activity (Mus musculus [26])?
A: Active

Q: And the Activity (Mus musculus [27])?
A: Non-toxic

Q: And the Activity (Mus musculus [28])?
A: Active

Q: And the Activity (Mus musculus [29])?
A: inactive
